From patent publication US12351559B2 (Biohaven Therapeutics Ltd., priority 2014, dated 2025)

What follows are compounds tested against T1, Kv7.2/7.3 (Homo sapiens, UniProt O43525+O43526) (assay: Kv7.2/7.3 activation assay, QPatch planar patch-clamp, single concentration screen). Conditions: Kv7.2/Kv7.3 co-expressing HEK cells, compound 3 μM, steady-state current at end of 2 s pulse to −30 mV.
T1 construct: host or cells: HEK cells, tetracycline-inducible expression
Type: cell-based
Parameters: key: <1.2-fold increase over baseline (−); +/−: as a range from <1.2-fold increase over baseline (−) up to >6-fold increase over baseline (+++); as a range from <1.2-fold increase over baseline (−) up to >6-fold increase over baseline (+++); as a range from <1.2-fold increase over baseline (−) up to >6-fold increase over baseline (+++); >6-fold increase over baseline (+++)
Procedure: The ability of compounds to potentiate K-currents in Kv7.2/7.3 containing HEK cells was assessed using planar patch-clamp on the QPatch automated screening platform.
Cell Line: The hKv7.2/7.3 cell line was obtained from Chantest (Cleveland, OH 44128) cat. #CT6147. These HEK cells will express the Kv7.2/7.3 ion channels when induced.
Cell Culture: Cells were maintained in a media containing DMEM/F12; 50/50 (GIBCO cat. #11330), 10% Fetal Bovine Serum (FBS) (GIBCO cat. #26140), 100 units/mL Penicillin-Streptomycin (GIBCO cat. #15140), 0.005 mg/mL Blasticidin (INVIVOGEN cat. #ant-bl-1), 0.5 mg/mL Geneticin (GIBCO cat. #10131), 0.1 mg/ml Zeocin (GIBCO cat. #R25001). Cells used in the electrophysiology assay were maintained in a media without Blasticidin, Geneticin and Zeocin for 2 days and channel expression was induced by adding tetracycline (BIOLINE cat. #BIO-87030) at a final concentration of 1 mg/mL. Cells were grown in T-175 flask to ˜75% confluency. Currents were recorded 24 hours after channel induction.
Compound Plates: Test compounds were prepared by performing serial dilutions on a Biomek NX^P (BECKMAN COULTER). Final dilutions were made in external recording solution with a final DMSO concentration of 0.1% DMSO. For single concentration screens each plate had 10 μM retigabine as a positive control and 0.1% DMSO as a negative control.
Electrophysiology: On the day of the experiment cells were washed with Hank's Balanced Salt Solution (HBBS) (GIBCO cat. #14175) and harvested with Tryple (GIBCO cat. #12604). Cells were then centrifuged at 2000 rpm for 5 minutes and resuspended in CHO-S-SFM (GIBCO cat. #12052) at ˜3×10^6 cells/mL. Cells were stirred for 30 minutes before experiments were started. External recording solution contained (in mM): NaCl (145), KCl (4), CaCl2 (2), MgCl2 (1), HEPES (10) and Glucose (10); pH was adjusted to 7.4 with NaOH and the osmolarity was adjusted to 300-305 mOsM with sucrose if necessary. Internal solution contained (in mM): KCl (125), KF (10), EGTA (5), Na2ATP (5), MgCl2 (3.2), HEPES (5); pH was adjusted to 7.2 with KOH and the osmolarity was adjusted to 298-302 mOsM with sucrose.
Potassium channel activity was measured on the QPatch HTX (Sophion Bioscience) using QPlates with 48-wells/plate. Each cell was taken as an independent experiment and only one compound was tested per well. Potassium channel activity was elicited by holding at −80 mV and stepping to −30 mV for 2 s followed by a 100 ms pulse to −120 mV.
Single concentration screen: Baseline conditions were obtained by recording 5 sweeps in the external solution only, this was repeated for three applications of the external solution. […] The steady-state current at the end of the 2 s pulse to −30 mV was measured to determine the fold increase from baseline.

Structure (SMILES) | Kv7.2/7.3 Activity: increase in current over baseline
CC(C)(C)CC(=O)Nc1nc2ccccc2n1C1CCC1 [Example 1, N-(1-cyclobutyl-1H-benzo[d]imidazol-2-yl)-3,3-dimethylbutanamide] | +
CC(C)(C)CC(=O)Nc1nc2ccccc2n1-c1ccccc1 [Example 2, 3,3-dimethyl-N-(1-phenyl-1H-benzo[d]imidazol-2-yl)butanamide] | +
COc1ccc2nc(NC(=O)CCC3CCCC3)n(C(C)C)c2c1 [Example 3, 3-cyclopentyl-N-(1-isopropyl-6-methoxy-1H-benzo[d]imidazol-2-yl)propanamide] | +++ (>6-fold increase over baseline (+++))
COc1ccc2nc(NC(=O)[C@@H](C)C(C)C)n(C(C)C)c2c1 [Example 4, (S)-N-(1-isopropyl-6-methoxy-1H-benzo[d]imidazol-2-yl)-2,3-dimethylbutanamide] | +/−
CC(C)(C)CC(=O)Nc1nc2ccc(C#N)cc2n1C1CCC1 [Example 5, N-(6-cyano-1-cyclobutyl-1H-benzo[d]imidazol-2-yl)-3,3-dimethylbutanamide] | +++ (>6-fold increase over baseline (+++))
N#Cc1ccc2nc(NC(=O)[C@@H]3C[C@@H]4CC[C@H]3C4)n(C3CCC3)c2c1 [Example 10, (1S,2R,4R)-N-(6-cyano-1-cyclobutyl-1H-benzo[d]imidazol-2-yl)bicyclo[2.2.1]heptane-2-carboxamide] | +
C[C@](O)(C(=O)Nc1nc2ccc(C#N)cc2n1C1CCC1)C(F)(F)F [Example 16, (S)-N-(6-cyano-1-cyclobutyl-1H-benzo[d]imidazol-2-yl)-3,3,3-trifluoro-2-hydroxy-2-methylpropanamide] | +/−
CC(O)(CC(=O)Nc1nc2ccc(C#N)cc2n1C1CCC1)c1ccccc1 (stereo not drawn) [Example 17, N-(6-cyano-1-cyclobutyl-1H-benzo[d]imidazol-2-yl)-3-hydroxy-3-phenylbutanamide] | ++
C[C@H](C(=O)Nc1nc2ccc(C#N)cc2n1C1CCC1)[C@@](C)(O)c1ccccc1 [Example 18, (2S,3R)-N-(6-cyano-1-cyclobutyl-1H-benzo[d]imidazol-2-yl)-3-hydroxy-2-methyl-3-phenylbutanamide] | +
C[C@H](C(=O)Nc1nc2ccc(C#N)cc2n1C1CCC1)[C@](C)(O)c1ccccc1 [Example 19, (2S,3S)-N-(6-cyano-1-cyclobutyl-1H-benzo[d]imidazol-2-yl)-3-hydroxy-2-methyl-3-phenylbutanamide] | +
C[C@](O)(CC(=O)Nc1nc2ccc(C#N)cc2n1C1CCC1)c1ccccn1 [Example 20, (S)-N-(6-cyano-1-cyclobutyl-1H-benzo[d]imidazol-2-yl)-3-hydroxy-3-(pyridin-2-yl)butanamide] | +
C[C@](O)(CC(=O)Nc1nc2ccc(C#N)cc2n1C1CCC1)c1cccnc1 [Example 21, (S)-N-(6-cyano-1-cyclobutyl-1H-benzo[d]imidazol-2-yl)-3-hydroxy-3-(pyridin-3-yl)butanamide] | +/−
C[C@H](C(=O)Nc1nc2ccc(C#N)cc2n1C1CCC1)N(C)CC(F)(F)F [Example 22, (R)-N-(6-cyano-1-cyclobutyl-1H-benzo[d]imidazol-2-yl)-2-(methyl(2,2,2-trifluoroethyl)amino)propanamide] | +/−
CN(C)C(CC(=O)Nc1nc2ccc(C#N)cc2n1C1CCC1)C(F)(F)F (stereo not drawn) [Example 24, N-(6-cyano-1-cyclobutyl-1H-benzo[d]imidazol-2-yl)-3-(dimethylamino)-4,4,4-trifluorobutanamide] | +
N#Cc1ccc2nc(NC(=O)C[C@@H](O)c3ccccc3)n(C3CCC3)c2c1 [Example 25, (R)-N-(6-cyano-1-cyclobutyl-1H-benzo[d]imidazol-2-yl)-3-hydroxy-3-phenylpropanamide] | +/−
N#Cc1ccc2nc(NC(=O)C[C@H](O)c3ccccc3)n(C3CCC3)c2c1 [Example 26, (S)-N-(6-cyano-1-cyclobutyl-1H-benzo[d]imidazol-2-yl)-3-hydroxy-3-phenylpropanamide] | +/−
C[C@H](C(=O)Nc1nc2ccc(C#N)cc2n1C1CCC1)C1(O)CCC1 [Example 27, (S)-N-(6-cyano-1-cyclobutyl-1H-benzo[d]imidazol-2-yl)-2-(1-hydroxycyclobutyl)propanamide] | +/−

Results, then the compound that gave them:

Kv7.2/7.3 Activity: increase in current over baseline | Structure (SMILES)
+ | CC(C)[C@H](C)C(=O)Nc1nc2ccc(C#N)cc2n1C1CCC1 [Example 6, (S)-N-(6-cyano-1-cyclobutyl-1H-benzo[d]imidazol-2-yl)-2,3-dimethylbutanamide]
+ | CC(C)(O)CC(=O)Nc1nc2ccc(C#N)cc2n1C1CCC1 [Example 8, N-(6-cyano-1-cyclobutyl-1H-benzo[d]imidazol-2-yl)-3-hydroxy-3-methylbutanamide]
+ | N#Cc1ccc2nc(NC(=O)C3CC(F)(F)C3)n(C3CCC3)c2c1 [Example 9, N-(6-cyano-1-cyclobutyl-1H-benzo[d]imidazol-2-yl)-3,3-difluorocyclobutane-1-carboxamide]
++ | CC1(C)C[C@@H]1C(=O)Nc1nc2ccc(C#N)cc2n1C1CCC1 [Example 11, (S)-N-(6-cyano-1-cyclobutyl-1H-benzo[d]imidazol-2-yl)-2,2-dimethylcyclopropane-1-carboxamide]
+/− | COC(C)(C)CC(=O)Nc1nc2ccc(C#N)cc2n1C1CCC1 [Example 12, N-(6-cyano-1-cyclobutyl-1H-benzo[d]imidazol-2-yl)-3-methoxy-3-methylbutanamide]
+/− | C[C@H](C(=O)Nc1nc2ccc(C#N)cc2n1C1CCC1)C(C)(C)O [Example 13, (S)-N-(6-cyano-1-cyclobutyl-1H-benzo[d]imidazol-2-yl)-3-hydroxy-2,3-dimethylbutanamide]
+/− | CC(C)[C@@H](C)C(=O)Nc1nc2ccc(C#N)cc2n1C1CCC1 [Example 14, (R)-N-(6-cyano-1-cyclobutyl-1H-benzo[d]imidazol-2-yl)-2,3-dimethylbutanamide]
+/− | CC(C)(O)[C@H]1C[C@@H]1C(=O)Nc1nc2ccc(C#N)cc2n1C1CCC1 [Example 15, (1S,2S)-N-(6-cyano-1-cyclobutyl-1H-benzo[d]imidazol-2-yl)-2-(2-hydroxypropan-2-yl)cyclopropane-1-carboxamide]
++ | C[C@H](C(=O)Nc1nc2ccc(C#N)cc2n1C1CCC1)C(C)(C)C [Example 23, (S)-N-(6-cyano-1-cyclobutyl-1H-benzo[d]imidazol-2-yl)-2,3,3-trimethylbutanamide]
+/− | CC(O)(CC(=O)Nc1nc2ccc(C#N)cc2n1C1CCC1)C1CC1 (stereo not drawn) [Example 28, N-(6-cyano-1-cyclobutyl-1H-benzo[d]imidazol-2-yl)-3-cyclopropyl-3-hydroxybutanamide]
